“Also recorded” adds a separate entry of the source.
Legend:
[1] = tested on: β-cells from dissociated adult primary human islets; experiment: Human β-cell proliferation assay, EdU incorporation, dissociated islets; format: cell-based; settings: for human β-cell proliferation (EdU incorporation), in words: dispersed human islets; for effect of co-treatment on human β-cell proliferation induced by GNF4877: GNF4877 2 μM, FK506 12 nM to 1 μM
Method: (§1) Rat or human β-cell proliferation assays were performed using dissociated primary rat or human islets. Islets were treated with the indicated compounds in the presence of EdU for 4 days before fixing and staining. […] For intact islet assays, primary human islets were treated for 7 or 8 days (as indicated in the legend). Rat dissociated islets were cultured in RPMI medium containing 10% FBS and human dissociated islets were cultured in PIM-S media (Prodo laboratories) with 10% human […].

[2] = tested on: adult rat primary β-cells; experiment: Rat β-cell proliferation assay, EdU incorporation, dissociated islets; format: cell-based; settings: for primary rat β-cell proliferation, combination of Chiron99021 with TG003: 4 days; for rat β-cell proliferation (EdU incorporation), in words: dispersed rat islets; for β-cell proliferation in combination with GNF4877: sub-EC50 GNF4877, Figs 7a,d (human and rat β-cells)
Method: as §1

[3] = molecular target: Gsk3b (Homo sapiens, UniProt P49841); experiment: Gsk3b biochemical kinase assay
Sequence of Gsk3b (P49841 whole entry, species assumed): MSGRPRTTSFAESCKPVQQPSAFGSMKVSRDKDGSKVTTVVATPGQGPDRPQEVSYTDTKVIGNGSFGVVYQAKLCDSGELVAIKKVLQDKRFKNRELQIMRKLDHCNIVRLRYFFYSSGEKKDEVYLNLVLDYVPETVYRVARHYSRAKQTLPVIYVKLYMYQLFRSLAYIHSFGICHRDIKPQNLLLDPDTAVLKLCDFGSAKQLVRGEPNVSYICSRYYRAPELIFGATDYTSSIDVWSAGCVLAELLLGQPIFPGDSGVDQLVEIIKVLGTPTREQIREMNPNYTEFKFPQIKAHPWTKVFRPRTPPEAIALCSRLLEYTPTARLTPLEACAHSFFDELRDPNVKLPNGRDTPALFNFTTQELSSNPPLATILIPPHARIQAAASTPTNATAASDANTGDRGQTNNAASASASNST

[4] = tested on: β-catenin nuclear localization in primary rat islets; experiment: β-Catenin nuclear translocation; format: cell-based
Method: At the end of the treatment, cells were fixed with 4% paraformaldehyde, blocked and permeabilized, and stained by standard immunofluorescence techniques for β-catenin (Cell signaling, #9562L; dilution 1:500), NFATc1 (Santa Cruz, rabbit polyclonal, SC-7294; dilution 1:200) or NFAT3c (Santa Cruz, SC-8321; dilution 1:200) and nuclear DNA was stained with DAPI (Molecular Probes; dilution 1:1,000). EdU incorporation was measured by click reaction with AlexaFluor-647-azide (Invitrogen). Plates were imaged with confocal microscope and analysed by Metamorph (Molecular Devices).

[5] = tested on: rat islet cells; experiment: eFluor670 vital dye dilution (cell division); format: cell-based; settings: 5 days treatment
Description: The extent of proliferation of human islet cells was too low to be detected with this method, consistent with the lower level of EdU incorporation induced in human islets.

[6] = molecular target: T1, Dyrk1a (Homo sapiens, UniProt Q13627); experiment: Dyrk1a kinase activity, biochemical assay
T1 construct: purchased Ambit KINOMEscan

| Molecule | human β-cell proliferation (EdU incorporation), in words [1] | rat β-cell proliferation (EdU incorporation), in words [2] | further results |
| --- | --- | --- | --- |
| CCN1/C(=C/C(C)=O)Sc2ccc(OC)cc21 [TG003] | induced β-cell proliferation | induced β-cell proliferation | primary rat β-cell proliferation, combination of Chiron99021 with TG003 [2]: additive induction of primary rat β-cell proliferation |
| cyclosporin A [CsA] | – | – | effect of co-treatment on human β-cell proliferation induced by GNF4877 [1]: reduced by co-treatment |
| O=C1Cc2c([nH]c3ccc(Br)cc23)-c2ncccc2N1 [1-Akp] | without any significant effects on human β-cell proliferation | significantly lower extent than GNF7156 and GNF4877 | – |
| COc1ccc(Cl)cc1C(=O)NCCc1ccc(S(=O)(=O)NC(=O)NC2CCCCC2)cc1 [glibenclamide] | – | – | β-cell proliferation in combination with GNF4877 [2]: showed additive activity with GNF4877 |
| C=CC[C@@H]1/C=C(\C)C[C@H](C)C[C@H](OC)[C@H]2O[C@@](O)(C(=O)C(=O)N3CCCC[C@H]3C(=O)O[C@H](/C(C)=C/[C@@H]3CC[C@@H](O)[C@H](OC)C3)[C@H](C)[C@@H](O)CC1=O)[C@H](C)C[C@@H]2OC [FK506] | – | – | effect of co-treatment on human β-cell proliferation induced by GNF4877 [1]: reduced by co-treatment |
| [Cl-].[Li+] [LiCl] | without any significant effects on human β-cell proliferation | significantly lower extent than GNF7156 and GNF4877 | – |
| Cc1cnc(-c2cnc(NCCNc3ccc(C#N)cn3)nc2-c2ccc(Cl)cc2Cl)[nH]1 [Chiron99021] | without any significant effects on human β-cell proliferation | significantly lower extent than GNF7156 and GNF4877 | primary rat β-cell proliferation, combination of Chiron99021 with TG003 [2]: additive induction of primary rat β-cell proliferation |
| Nc1ncnc2c1c(I)cn2[C@@H]1O[C@H](CO)[C@@H](O)[C@H]1O [5-IT] | induced β-cell proliferation | induced β-cell proliferation | – |
| COC(=O)C1=C(C)NC(C)=C([N+](=O)[O-])C1c1ccccc1C(F)(F)F (stereo not drawn) [Bay K8644] | – | – | β-cell proliferation in combination with GNF4877 [2]: showed additive activity with GNF4877 |
| COc1ccc2c(c1)[nH]c1c(C)nccc12 [harmine] | induced β-cell proliferation | induced β-cell proliferation | – |
| Nc1ncc(-c2ccccc2)nc1C(=O)Nc1ccccc1N1CCC(C(=O)O)CC1 [GNF6324] | completely inactive | completely inactive; also recorded: did not induce EdU incorporation in rat β-cells | potency on Gsk3b, in words [3]: retained similar potency to GNF7156 on Gsk3b; β-catenin nuclear translocation [4]: capable of inducing nuclear localization of β-catenin; eFluor670 staining intensity relative to control [5]: nor cause a decrease in eFluor670 staining; IC50 [6]: > 50 µM |
